Test results taken from PubChem BioAssay (NCI).
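GI50 marks 50% less growth. TGI marks complete inhibition of growth.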

Assays:
Assay in all cases: growth of human tumour cells (NCI), 384-well format
HCT-116 colon = test system: HCT-116 colon
RPMI-8226 leukemia = test system: RPMI-8226 leukemia
NCI/ADR-RES ovarian = test system: NCI/ADR-RES ovarian
MDA-MB-231 breast = test system: MDA-MB-231 breast
SNB-19 CNS = test system: SNB-19 CNS
T-47D breast = test system: T-47D breast
BT-549 breast = test system: BT-549 breast
UACC-257 melanoma = test system: UACC-257 melanoma
IGROV1 ovarian = test system: IGROV1 ovarian
M14 melanoma = test system: M14 melanoma
SK-MEL-2 melanoma = test system: SK-MEL-2 melanoma
OVCAR-8 ovarian = test system: OVCAR-8 ovarian
SK-MEL-28 melanoma = test system: SK-MEL-28 melanoma
MDA-MB-468 breast = test system: MDA-MB-468 breast
OVCAR-3 ovarian = test system: OVCAR-3 ovarian
SF-539 CNS = test system: SF-539 CNS
SK-OV-3 ovarian = test system: SK-OV-3 ovarian
786-0 renal = test system: 786-0 renal
SW-620 colon = test system: SW-620 colon
MDA-MB-435 melanoma = test system: MDA-MB-435 melanoma
HCT-15 colon = test system: HCT-15 colon
ACHN renal = test system: ACHN renal
CAKI-1 renal = test system: CAKI-1 renal
K-562 leukemia = test system: K-562 leukemia
NCI-H522 lung = test system: NCI-H522 lung
HOP-92 NSCLC = test system: HOP-92 NSCLC
UACC-62 melanoma = test system: UACC-62 melanoma
SK-MEL-5 melanoma = test system: SK-MEL-5 melanoma
HL-60(TB) leukemia = test system: HL-60(TB) leukemia
DU-145 prostate = test system: DU-145 prostate
COLO 205 colon = test system: COLO 205 colon
NCI-H226 lung = test system: NCI-H226 lung
TK-10 renal = test system: TK-10 renal
NCI-H322M lung = test system: NCI-H322M lung
UO-31 renal = test system: UO-31 renal
MALME-3M melanoma = test system: MALME-3M melanoma
SF-268 CNS = test system: SF-268 CNS
A498 renal = test system: A498 renal
HOP-62 NSCLC = test system: HOP-62 NSCLC
PC-3 prostate = test system: PC-3 prostate
MOLT-4 leukemia = test system: MOLT-4 leukemia
SR leukemia = test system: SR leukemia
CCRF-CEM leukemia = test system: CCRF-CEM leukemia
MCF7 breast = test system: MCF7 breast
SF-295 CNS = test system: SF-295 CNS
HT29 colon = test system: HT29 colon
HCC-2998 colon = test system: HCC-2998 colon
NCI-H23 lung = test system: NCI-H23 lung
U251 glioblastoma = test system: U251 glioblastoma
SN12C renal = test system: SN12C renal
KM12 colon = test system: KM12 colon
OVCAR-5 ovarian = test system: OVCAR-5 ovarian
RXF 393 renal = test system: RXF 393 renal
OVCAR-4 ovarian = test system: OVCAR-4 ovarian
LOX IMVI melanoma = test system: LOX IMVI melanoma
A549 NSCLC = test system: A549 NSCLC
NCI-H460 NSCLC = test system: NCI-H460 NSCLC

Cc1[nH]c(/C=C2\C(=O)Nc3ccc(S(=O)(=O)Cc4c(Cl)cccc4Cl)cc32)c(C)c1C(=O)N1CCC[C@@H]1CN1CCCC1
GI50 (HCT-116 colon): 1560 nM
TGI (HCT-116 colon): 2910 nM
GI50 (RPMI-8226 leukemia): 1250 nM
TGI (RPMI-8226 leukemia): 2500 nM
GI50 (NCI/ADR-RES ovarian): 1890 nM
TGI (NCI/ADR-RES ovarian): 3.36 µM
GI50 (MDA-MB-231 breast): 1670 nM
TGI (MDA-MB-231 breast): 3.04 µM
GI50 (SNB-19 CNS): 1940 nM
TGI (SNB-19 CNS): 3.36 µM
GI50 (T-47D breast): 1740 nM
TGI (T-47D breast): 3.12 µM
GI50 (BT-549 breast): 1560 nM
TGI (BT-549 breast): 2900 nM
GI50 (UACC-257 melanoma): 1420 nM
TGI (UACC-257 melanoma): 2730 nM
GI50 (IGROV1 ovarian): 1710 nM
TGI (IGROV1 ovarian): 3.1 µM
GI50 (M14 melanoma): 1740 nM
TGI (M14 melanoma): 3.12 µM
GI50 (SK-MEL-2 melanoma): 1240 nM
TGI (SK-MEL-2 melanoma): 2490 nM
GI50 (OVCAR-8 ovarian): 1680 nM
TGI (OVCAR-8 ovarian): 3.06 µM
GI50 (SK-MEL-28 melanoma): 1750 nM
TGI (SK-MEL-28 melanoma): 3.13 µM
GI50 (MDA-MB-468 breast): 1580 nM
TGI (MDA-MB-468 breast): 2930 nM
GI50 (OVCAR-3 ovarian): 1890 nM
TGI (OVCAR-3 ovarian): 3.31 µM
GI50 (SF-539 CNS): 1740 nM
TGI (SF-539 CNS): 3.12 µM
GI50 (SK-OV-3 ovarian): 1340 nM
TGI (SK-OV-3 ovarian): 2630 nM
GI50 ([…]-0 renal): 1440 nM
TGI (786-0 renal): 2750 nM
GI50 (SW-620 colon): 1760 nM
TGI (SW-620 colon): 3.16 µM
GI50 (MDA-MB-435 melanoma): 1760 nM
TGI (MDA-MB-435 melanoma): 3.15 µM
GI50 (HCT-15 colon): 1820 nM
TGI (HCT-15 colon): 3.23 µM
GI50 (ACHN renal): 1600 nM
TGI (ACHN renal): 2950 nM
GI50 (CAKI-1 renal): 1530 nM
TGI (CAKI-1 renal): 2860 nM
GI50 (K-562 leukemia): 1720 nM
TGI (K-562 leukemia): 3.1 µM
GI50 (NCI-H522 lung): 1980 nM
TGI (NCI-H522 lung): 3.4 µM
GI50 (HOP-92 NSCLC): 1880 nM
TGI (HOP-92 NSCLC): 3.29 µM
GI50 (UACC-62 melanoma): 1060 nM
TGI (UACC-62 melanoma): 2250 nM
GI50 (SK-MEL-5 melanoma): 1190 nM
TGI (SK-MEL-5 melanoma): 2430 nM
GI50 (HL-60(TB) leukemia): 2110 nM
TGI (HL-60(TB) leukemia): 3.54 µM
GI50 (DU-145 prostate): 1850 nM
TGI (DU-145 prostate): 3.25 µM
GI50 (COLO 205 colon): 1720 nM
TGI (COLO 205 colon): 3.1 µM
GI50 (NCI-H226 lung): 1930 nM
TGI (NCI-H226 lung): 3.34 µM
GI50 (TK-10 renal): 1820 nM
TGI (TK-10 renal): 3.22 µM
GI50 (NCI-H322M lung): 1750 nM
TGI (NCI-H322M lung): 3.15 µM
GI50 (UO-31 renal): 1690 nM
TGI (UO-31 renal): 3.07 µM
GI50 (MALME-3M melanoma): 1720 nM
TGI (MALME-3M melanoma): 3.1 µM
GI50 (SF-268 CNS): 1460 nM
TGI (SF-268 CNS): 2780 nM
GI50 (A498 renal): 1630 nM
TGI (A498 renal): 2990 nM
GI50 (HOP-62 NSCLC): 1850 nM
TGI (HOP-62 NSCLC): 3.25 µM
GI50 (PC-3 prostate): 1720 nM
TGI (PC-3 prostate): 3.11 µM
GI50 (MOLT-4 leukemia): 573 nM
TGI (MOLT-4 leukemia): 1730 nM
GI50 (SR leukemia): 1310 nM
TGI (SR leukemia): 2590 nM
GI50 (CCRF-CEM leukemia): 681 nM
TGI (CCRF-CEM leukemia): 1900 nM
GI50 (MCF7 breast): 1750 nM
TGI (MCF7 breast): 3.13 µM
GI50 (SF-295 CNS): 1320 nM
TGI (SF-295 CNS): 2590 nM
GI50 (HT29 colon): 1780 nM
TGI (HT29 colon): 3.18 µM
GI50 (HCC-2998 colon): 1990 nM
TGI (HCC-2998 colon): 3.42 µM
GI50 (NCI-H23 lung): 1020 nM
TGI (NCI-H23 lung): 6.68 µM
GI50 (U251 glioblastoma): 1810 nM
TGI (U251 glioblastoma): 3.22 µM
GI50 (SN12C renal): 1500 nM
TGI (SN12C renal): 2830 nM
GI50 (KM12 colon): 445 nM
TGI (KM12 colon): 1500 nM
GI50 (OVCAR-5 ovarian): 1930 nM
TGI (OVCAR-5 ovarian): 3.37 µM
GI50 (RXF 393 renal): 1650 nM
TGI (RXF 393 renal): 3.01 µM
GI50 (OVCAR-4 ovarian): 1740 nM
TGI (OVCAR-4 ovarian): 3.13 µM
GI50 (LOX IMVI melanoma): 2020 nM
TGI (LOX IMVI melanoma): 3.46 µM
GI50 (A549 NSCLC): 1710 nM
TGI (A549 NSCLC): 3.1 µM
GI50 (NCI-H460 NSCLC): 1340 nM
TGI (NCI-H460 NSCLC): 2630 nM
